In the assay the test system is P388 leukemia ip, CD2F1 mice, survival T/C. Kind of assay: NCI In Vivo Anticancer Drug Screen. Data for tumor model P388 Leukemia (intraperitoneal) in CD2F1 (CDF1) mice. To be noted: endpoint: median survival time, higher = longer survival. In outline: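 Mice carrying the transplanted tumor received test compound or vehicle. Survival was recorded in each group, and the value is the treated-group measurement divided by that of the vehicle-treated control group.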

Setting [1] is: dose: 3.12 mg/kg/injection, schedule: Q01DX009 (ip), vehicle: saline.
[2] abbreviates: dose: 6.25 mg/kg/injection, schedule: Q01DX009 (ip), vehicle: saline.
[3] abbreviates: dose: 50.0 mg/kg/injection, schedule: Q01DX005 (ip), vehicle: saline.
Setting [4] is: dose: 100.0 mg/kg/injection, schedule: Q01DX005 (ip), vehicle: saline.
The mark [5] stands for this setting: dose: 200.0 mg/kg/injection, schedule: Q01DX005 (ip), vehicle: saline.
The mark [6] stands for this setting: dose: 50.0 mg/kg/injection, schedule: Q01DX005 (ip), vehicle: Klucel (hydroxypropylcellulose) (HPC).
The mark [7] stands for this setting: dose: 100.0 mg/kg/injection, schedule: Q01DX005 (ip), vehicle: Klucel (hydroxypropylcellulose) (HPC).
[8] abbreviates: dose: 50.0 mg/kg/injection, schedule: Q01DX009 (ip), vehicle: saline.
[9] abbreviates: dose: 100.0 mg/kg/injection, schedule: Q01DX009 (ip), vehicle: saline.
Where [10] appears, read: dose: 200.0 mg/kg/injection, schedule: Q01DX009 (ip), vehicle: saline.

Several values for one entry are separate records, joined by “and”; a condition that tells them apart may be missing. Equal values may be shown once. Inconclusive results and toxic doses are left out.

Turning to `Nc1nc(-c2ccccc2)nc(-c2ccccc2)n1`, the T/C (dose: 2.5 mg/kg/injection, schedule: Q01DX009 (ip), vehicle: saline) was 104 % of control; the T/C under setting [1] is 95 % of control; the T/C (dose: 3.12 mg/kg/injection, schedule: Q01DX009 (ip), vehicle: suspension in saline) was 100 % of control and 97 % of control; the T/C (dose: 5.0 mg/kg/injection, schedule: Q01DX009 (ip), vehicle: saline) is 104 % of control; the T/C under setting [2] is 92 % of control; the T/C (dose: 10.0 mg/kg/injection, schedule: Q01DX009 (ip), vehicle: saline) is 100 % of control. Further, the T/C by setting is: (dose: 12.5 mg/kg/injection, schedule: Q01DX009 (ip), vehicle: saline) 89 % of control; (dose: 12.5 mg/kg/injection, schedule: Q01DX009 (ip), vehicle: suspension in saline) 93 % of control and 98 % of control; (dose: 20.0 mg/kg/injection, schedule: Q01DX009 (ip), vehicle: saline) 100 % of control; (dose: 25.0 mg/kg/injection, schedule: Q01DX009 (ip), vehicle: suspension in saline) 90 % of control and 98 % of control.
Turning to `OCC1SC(O)C(O)C(O)C1O` (stereo unspecified), the T/C by setting is: (dose: 120.0 mg/kg/injection, schedule: Q##DX005 (ip), vehicle: saline) 97 % of control; (dose: 240.0 mg/kg/injection, schedule: Q##DX005 (ip), vehicle: saline) 92 % of control; (dose: 600.0 mg/kg/injection, schedule: Q01DX001 (ip), vehicle: saline) 102 % of control and 104 % of control; (dose: 1200.0 mg/kg/injection, schedule: Q01DX001 (ip), vehicle: saline) 100 % of control and 104 % of control.
With `[Cl][Sn]([c]1cccc2ccccc12)[c]1cccc2ccccc12`, the T/C runs as follows: (dose: 1.56 mg/kg/injection, schedule: Q01DX005 (ip), vehicle: Klucel (hydroxypropylcellulose) (HPC)) 101 % of control; (dose: 3.12 mg/kg/injection, schedule: Q01DX005 (ip), vehicle: Klucel (hydroxypropylcellulose) (HPC)) 120 % of control; (dose: 6.25 mg/kg/injection, schedule: Q01DX005 (ip), vehicle: Klucel (hydroxypropylcellulose) (HPC)) 124 % of control; (dose: 12.5 mg/kg/injection, schedule: Q01DX005 (ip), vehicle: Klucel (hydroxypropylcellulose) (HPC)) 109 % of control.
With `CCCNCC(=O)Nc1ccccc1NC(=O)CNCCC`, the T/C was 100 % of control under setting [3], 102 % of control under setting [4] and 100 % of control under setting [5].
As to `CCOC(=O)C(C#N)C(=N)C1C(=O)OC2CCCCC21` (stereo unspecified), the T/C runs as follows: (dose: 60.0 mg/kg/injection, schedule: Q01DX005 (ip), vehicle: saline with Tween-80) 98 % of control; (dose: 120.0 mg/kg/injection, schedule: Q01DX005 (ip), vehicle: saline with Tween-80) 100 % of control; (dose: 240.0 mg/kg/injection, schedule: Q01DX005 (ip), vehicle: saline with Tween-80) 92 % of control.
On to `O=C1OC(C(Cl)(Cl)Cl)Nc2ccccc21` (stereo unspecified), for which the T/C is, setting by setting: under setting [6], 111 % of control; under setting [7], 111 % of control.
Turning to `NCCc1ccc(N)cc1`, the T/C runs as follows: under setting [8], 100 % of control and 105 % of control; under setting [9], 100 % of control and 96 % of control; under setting [10], 86 % of control.
For `Cc1cccc2nc(-c3ccccn3)n(CCc3ccccn3)c12`, the T/C by setting is: under setting [6], 98 % of control; under setting [7], 106 % of control.
Take `C(=Nc1ccccc1-c1ccccc1N=Cc1ccccc1)c1ccccc1`: the T/C runs as follows: (dose: 1.56 mg/kg/injection, schedule: Q01DX009 (ip), vehicle: saline) 100 % of control and 91 % of control; under setting [1], 91 % of control; (dose: 6.25 mg/kg/injection, schedule: Q01DX009 (ip), vehicle: saline with Tween-80) 104 % of control; under setting [2], 88 % of control and 93 % of control; (dose: 25.0 mg/kg/injection, schedule: Q01DX009 (ip), vehicle: saline with Tween-80) 86 % of control; under setting [9], 96 % of control. For the same molecule, the T/C under setting [10] was 89 % of control.
Turning to `CN=NNc1ccc(C#N)cc1`, the T/C runs as follows: (dose: 100.0 mg/kg/injection, schedule: Q01DX001 (ip), vehicle: Klucel (hydroxypropylcellulose) (HPC)) 98 % of control; (dose: 200.0 mg/kg/injection, schedule: Q01DX001 (ip), vehicle: Klucel (hydroxypropylcellulose) (HPC)) 98 % of control; (dose: 400.0 mg/kg/injection, schedule: Q01DX001 (ip), vehicle: Klucel (hydroxypropylcellulose) (HPC)) 95 % of control.
As to `CCSC(C(O)C(O)C(O)C(O)CO)n1cnc2c(SC)ncnc21` (stereo unspecified), the T/C runs as follows: (dose: 25.0 mg/kg/injection, schedule: Q01DX009 (ip), vehicle: water) 99 % of control; (dose: 50.0 mg/kg/injection, schedule: Q01DX009 (ip), vehicle: water) 95 % of control; (dose: 100.0 mg/kg/injection, schedule: Q01DX009 (ip), vehicle: water) 94 % of control; (dose: 200.0 mg/kg/injection, schedule: Q01DX009 (ip), vehicle: water) 99 % of control; (dose: 400.0 mg/kg/injection, schedule: Q01DX009 (ip), vehicle: water) 97 % of control.
For `CC1(C)OC(COCCOCCOCCCC#N)C(COCCOCCOCCCC#N)O1` (stereo unspecified), the T/C reads like this: (dose: 25.0 mg/kg/injection, schedule: Q01DX005 (ip), vehicle: saline) 100 % of control; under setting [3], 103 % of control; under setting [4], 107 % of control; under setting [5], 98 % of control.
Take `COc1cccc2c1C(=O)c1c(O)c3c(c(O)c1C2=O)C[C@@](O)(C(C)O)C[C@@H]3OC1CC(N2CCCCC2)C(O)C(C)O1` (stereo partly specified): the T/C (dose: 2.5 mg/kg/injection, schedule: Q04DX003 (ip), vehicle: water) was 120 % of control; the T/C (dose: 5.0 mg/kg/injection, schedule: Q04DX003 (ip), vehicle: water) was 162 % of control; the T/C (dose: 10.0 mg/kg/injection, schedule: Q04DX003 (ip), vehicle: water) is 118 % of control; the T/C (dose: 20.0 mg/kg/injection, schedule: Q04DX003 (ip), vehicle: water) was 110 % of control; the T/C (dose: 40.0 mg/kg/injection, schedule: Q04DX003 (ip), vehicle: water) was 96 % of control.
For `C=C(C)n1c(=O)[nH]c2ccccc21`, the T/C is, setting by setting: under setting [8], 87 % of control; under setting [9], 87 % of control; under setting [10], 89 % of control.
Consider `O=CNc1ccn[nH]1`, for which the T/C by setting is: under setting [8], 106 % of control; under setting [9], 101 % of control; under setting [10], 100 % of control.
Take `CCC(C)C(NC(=O)CCl)C(=O)O` (stereo unspecified): the T/C is 99 % of control under setting [8], 96 % of control under setting [9] and 101 % of control under setting [10].
For the molecule `CCOP(=O)(O)C1CCCC(C)[N-]1.CCOP(=O)(O)C1CCCC(C)[N-]1.[Cu+2]` (stereo unspecified), the T/C is 101 % of control (dose: 12.5 mg/kg/injection, schedule: Q04DX003 (ip), vehicle: Klucel (hydroxypropylcellulose) (HPC)) and 112 % of control (dose: 25.0 mg/kg/injection, schedule: Q04DX003 (ip), vehicle: Klucel (hydroxypropylcellulose) (HPC)).
Turning to `CC(C)(C)CC(C)(C)NCC(O)COc1ccc(C(C)(C)c2ccc(OCC(O)CNC(C)(C)CC(C)(C)C)cc2)cc1` (stereo unspecified), the T/C was 104 % of control (dose: 3.13 mg/kg/injection, schedule: Q01DX009 (ip), vehicle: other); 108 % of control (dose: 3.13 mg/kg/injection, schedule: Q04DX003 (ip), vehicle: other); 90 % of control (dose: 6.25 mg/kg/injection, schedule: Q01DX009 (ip), vehicle: other); 100 % of control (dose: 6.25 mg/kg/injection, schedule: Q04DX003 (ip), vehicle: other).
As for `CCN(Cc1cccc(S(=O)(=O)O)c1)c1ccc(C(=C2C=CC(=[N+](CC)Cc3cccc(S(=O)(=O)O)c3)C=C2)c2ccccc2)cc1`, the T/C under setting [3] is 107 % of control, the T/C under setting [4] is 110 % of control and the T/C under setting [5] is 115 % of control.
On to `CCC1=NC(C)(C)CO1`, for which the T/C was 104 % of control under setting [8], 97 % of control under setting [9] and 97 % of control under setting [10].

The values above are taken from PubChem BioAssay AID330 (DTP/NCI, 2004).
